Data from patent US20230233555A1 (AbbVie Inc., priority 2022, published 2023).
“Also recorded” adds a separate entry of the source.

Tests used:
[1] = Milk excretion in lactating rats; assay type: in vivo, rat; details: female, Sprague-Dawley, rat, milk (relative to maternal plasma); single oral 10 mg/kg radiolabeled, post-partum days 7-8; read-out: Drug exposure in milk vs maternal plasma (AUC0-t)
Source text: (§1) Drug exposure was approximately 30-fold greater in milk than in maternal plasma based on AUC0-t values. Approximately 97% of drug-related material in milk was parent drug.

[2] = test system: lactating female Sprague-Dawley rats; test: Milk excretion in lactating rats; assay type: in vivo, rat; details: single oral 10 mg/kg radiolabeled
Source text: as §1

[3] = test system: human peripheral blood lymphocytes; test: In vitro chromosome aberration assay; assay type: cell-based
[4] = Renal impairment pharmacokinetic study (Study M13-551); assay type: in vivo, human
Procedure: Renal clearance indicates some involvement of renal transporters in the excretion. Renal secretion is however not estimated to contribute to more than 25% of the elimination. […] As used herein, reference to “severe renal impairment” means a creatinine clearance of less than 30 mL/min.
This may increase the risk of adverse reactions; therefore, dosage modification in patients with severe renal impairment is recommended.

[5] = test system: pregnant female rats; test: Oral pre- and post-natal development study in rats; assay type: in vivo; details: GD 6 through lactation day 20, AUC basis, 10 mg/kg/day
[6] = test system: pregnant rabbits; test: Oral embryo-fetal developmental study in rabbits; assay type: in vivo
[7] = test system: P-gp, BCRP, BSEP, OATP1B1, OATP1B3, OCT1, OCT2, OAT1, OAT3, MATE1, MATE2K; test: In vitro transporter inhibition; assay type: in vitro ADME; details: clinically relevant concentrations
[8] = test system: patients with rheumatoid arthritis; details: in vivo
Source text: Exposure adjusted incidence rates were adjusted by trial for all the adverse events reported in this section.
Patients 18 years of age and older were eligible to participate. The presence of at least 6 tender and 6 swollen joints and evidence of systemic inflammation based on elevation of hsCRP was required at baseline.

[9] = molecular target: CYP2D6 (Homo sapiens, UniProt P10635); test: In vitro metabolism / substrate assessment, CYP2D6; assay type: in vitro ADME
[10] = test system: CYP3A4, CYP2B6, CYP1A2; test: In vitro CYP induction; assay type: in vitro ADME
[11] = test system: pregnant rats; test: Oral embryo-fetal development studies in rats
[12] = test system: Sprague-Dawley rats; test: Carcinogenicity study in Sprague-Dawley rats; assay type: in vivo, rat; details: for Exposure multiple at top dose without tumorigenicity: AUC basis
[13] = test system: patients with moderately to severely active rheumatoid arthritis, inadequate response to MTX; test: Trial RA-II (NCT02706951); assay type: in vivo, human; details: RA-II through Week 14; 30 mg monotherapy
Source text: The primary endpoint was the proportion of patients who achieved an ACR20 response at Week 14. Key secondary endpoints included DAS28-CRP ≤3.2, DAS28-CRP <2.6, and change from baseline in HAQ-DI at Week 14.

[14] = test system: Tg.rasH2 mice; test: Carcinogenicity study in Tg.rasH2 mice; assay type: in vivo, mouse; details: 26 weeks, oral up to 20 mg/kg/day
[15] = Model-estimated and predicted upadacitinib Cmax and AUCss in UC patients with co-administration of strong CYP3A4 inhibitors; design: species or system human; details: for Predicted Median Cmax in UC Patients with Strong CYP3A4 inhibitors based on results from M13-401: model-estimated value multiplied by 1.7; for Predicted AUCss in UC Patients with Strong CYP3A4 inhibitors based on results from M13-401, Median: model-estimated value multiplied by 1.75
Source text: The data from Study M13-401 are provided in Table 38 and Table 39, which show the expected increase in Cmax and AUCss, respectively, in patients with UC across all dose levels with co-administration of CYP3A4 inhibitors.

[16] = Hepatic impairment pharmacokinetic study; assay type: in vivo, human

CYP2D6, sequence (P10635 whole entry): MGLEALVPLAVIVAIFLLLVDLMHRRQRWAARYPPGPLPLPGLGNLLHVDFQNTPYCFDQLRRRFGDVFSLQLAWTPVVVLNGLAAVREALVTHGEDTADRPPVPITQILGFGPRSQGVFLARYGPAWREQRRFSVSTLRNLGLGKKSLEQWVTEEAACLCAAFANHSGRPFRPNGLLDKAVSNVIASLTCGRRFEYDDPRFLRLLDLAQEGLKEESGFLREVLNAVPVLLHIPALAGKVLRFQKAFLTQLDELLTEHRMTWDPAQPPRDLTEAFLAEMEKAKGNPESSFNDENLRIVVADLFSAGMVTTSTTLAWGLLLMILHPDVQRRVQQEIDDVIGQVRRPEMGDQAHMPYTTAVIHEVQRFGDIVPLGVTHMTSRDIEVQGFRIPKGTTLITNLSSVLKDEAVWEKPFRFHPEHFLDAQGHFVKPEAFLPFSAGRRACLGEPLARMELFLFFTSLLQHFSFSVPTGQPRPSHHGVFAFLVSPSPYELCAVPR

With `CC[C@@H]1CN(C(=O)NCC(F)(F)F)C[C@@H]1c1cnc2cnc3[nH]ccc3n12` [upadacitinib, (3S,4R)-3-Ethyl-4-(3H-imidazo[1,2-a]pyrrolo[2,3-e]pyrazin-8-yl)-N-(2,2,2-trifluoroethyl)pyrrolidine-1-carboxamide hydrate (2:1)] the Kp [1] was ~30, the “Parent drug share of drug-related material in milk” value [2] was “Approximately 97%” and the “Genotoxicity, chromosome aberration” value [3] was “tested negatively”. The “Cmax, impaired vs normal renal function” value ([4]; in vivo) was “similar”, the “Contribution of the renal route to elimination” value ([4]; in vivo) was “approximately 25%” and the “AUCinf higher vs normal renal function” value ([4]; mild renal impairment) was 18%. For the same molecule, the “AUCinf higher vs normal renal function” value ([4]; moderate renal impairment) was 33%, the “AUCinf higher vs normal renal function” value ([4]; severe renal impairment) was 44% and the “Cmax higher vs normal renal function” value ([4]; severe renal impairment, Study M13-551) was 14%. For the same molecule, the “Exposure multiple with no maternal or developmental toxicity” value [5] was “approximately 1.6 times the MRHD of 30 mg”, the “Exposure multiple with developmental toxicity (cardiovascular malformations, post-implantation loss, decreased fetal body weights)” value [6] was ≥ 17 times the 15 mg dose and the “Exposure multiple with no developmental toxicity” value ([6]; organogenesis) was ~2.5 times the 15 mg dose. The “Inhibition of transporters (P-gp, BCRP, OATP1B1, OATP1B3, OCT1, OCT2, OAT1, OAT3, MATE1, MATE2K)” value [7] was “does not inhibit; also recorded: no in vivo relevant inhibition”, the “Hemoglobin decreases below 8 g/dL in at least one measurement, patients” value [8] was “none” and the “Lipid changes with treatment” value [8] was “dose-related increases in total cholesterol, triglycerides and LDL cholesterol”. For the same molecule, the “Time of peak elevations in LDL and HDL cholesterol” value [8] was ≤ 8 Week, the “Substrate of / metabolised by CYP2D6” value [9] was “substrate; also recorded: potential minor contribution from CYP2D6” and the “Induction of CYP1A2” value [10] was “borderline”. For the same molecule, the “Induction of CYP3A4 and CYP2B6” value [10] was “inducer”, the “Exposure multiple with additional skeletal malformations and decreased fetal body weights, no maternal toxicity” value ([11]; AUC basis, 75 mg/kg/day) was “approximately 48 times the MRHD of 30 mg” and the “Exposure multiple with teratogenicity (misshapen humerus, bent scapula)” value ([11]; GD 6 to 17, AUC basis, 5 mg/kg/day and higher) was ≥ 1.0 times the MRHD of 30 mg. For the same molecule, the “Exposure multiple with developmental toxicity (skeletal malformations, decreased fetal body weights)” value ([11]; oral) was ≥ 2 times the 15 mg dose, the “Exposure multiple with no developmental toxicity” value ([11]; oral, organogenesis) was “approximately 0.3 times the 15 mg dose” and the “Exposure multiple at top dose without tumorigenicity” value ([12]; female rats, 20 mg/kg/day) was ~6.0 times the MRHD of 30 mg. For the same molecule, the “Exposure multiple at top dose without tumorigenicity” value ([12]; male rats, 15 mg/kg/day) was “approximately 2.4 times the MRHD of 30 mg”, the Tumorigenicity ([12]; up to 101 weeks, oral up to 15 (male) or 20 (female) mg/kg/day) was “No evidence of tumorigenicity” and the “Venous thrombosis, number of patients” value [13] was 0 patients. The Tumorigenicity [14] was “No evidence of tumorigenicity”, the “Predicted Median Cmax in UC Patients with Strong CYP3A4 inhibitors based on results from M13-401” value ([15]; 7.5 mg treatment group) was 34.3 ng/mL and the “Predicted AUCss in UC Patients with Strong CYP3A4 inhibitors based on results from M13-401, Median” value ([15]; 7.5 mg treatment group) was 282 ng·h/mL. For the same molecule, the “Predicted Median Cmax in UC Patients with Strong CYP3A4 inhibitors based on results from M13-401” value ([15]; 15 mg treatment group) was 70.2 ng/mL, the “Predicted AUCss in UC Patients with Strong CYP3A4 inhibitors based on results from M13-401, Median” value ([15]; 15 mg treatment group) was 599 ng·h/mL and the “Predicted Median Cmax in UC Patients with Strong CYP3A4 inhibitors based on results from M13-401” value ([15]; 30 mg treatment group) was 133 ng/mL. For the same molecule, the “Predicted AUCss in UC Patients with Strong CYP3A4 inhibitors based on results from M13-401, Median” value ([15]; 30 mg treatment group) was 1143 ng·h/mL, the “Predicted Median Cmax in UC Patients with Strong CYP3A4 inhibitors based on results from M13-401” value ([15]; 45 mg treatment group) was 206 ng/mL and the “Predicted AUCss in UC Patients with Strong CYP3A4 inhibitors based on results from M13-401, Median” value ([15]; 45 mg treatment group) was 1740 ng·h/mL. For the same molecule, the “Cmax vs normal liver function” value ([16]; mild hepatic impairment) was “unchanged”, the “AUC (AUCinf) higher vs normal hepatic function” value ([16]; mild hepatic impairment (Child-Pugh A)) was 28% and the “Cmax higher vs normal liver function” value ([16]; moderate hepatic impairment) was 43%. The “AUC (AUCinf) higher vs normal hepatic function” value ([16]; moderate hepatic impairment (Child-Pugh B)) was 24%.
